{
  "source": "ChEMBL document CHEMBL3639109",
  "about": "“Macrocyclic integrase inhibitors” (2013)",
  "data": [
    {"target": "Gag-Pol polyprotein (Human immunodeficiency virus type 1 group M subtype B (isolateBRU/LAI) (HIV-1), UniProt P03367)", "assay": "Inhibition Assay: Inhibition of HIV integrase.", "units": {"IC50": "nM"}, "values": [
      {"smiles": "COC(=O)c1nc(Br)c2cccnc2c1OCc1ccccc1", "IC50": 950},
      {"smiles": "CCOC(=O)c1cc(F)ccc1C#N", "IC50": 68000},
      {"smiles": "CNS(=O)(=O)CCCCCl", "IC50": 1000},
      {"smiles": "CNS(=O)(=O)CCCCN=[N+]=[N-]", "IC50": 250},
      {"smiles": "CNS(=O)(=O)CCCCN", "IC50": 360},
      {"smiles": "CNS(=O)(=O)CCCCNC(=O)OC(C)(C)C", "IC50": 1200},
      {"smiles": "CNS(=O)(=O)CCCCC#N", "IC50": 1600},
      {"smiles": "COC(=O)c1nc(Br)c2cccnc2c1OS(=O)(=O)c1ccc(C)cc1", "IC50": 200}
    ]}
  ]
}
